Data as given in US8906925B2, “Pyrido[4,3-B]indoles containing rigid moieties” (Medivation Technologies, Inc., priority 2008, dated 2014).
Where “and” joins values, the source holds several entries; their conditions need not be identical. Identical values can stand only once. Like-named read-outs stand apart in the source and are kept apart here.

Tests used:
[1] = molecular target: T1, human recombinant adrenergic α2B receptor (Homo sapiens, UniProt P18089); assay: Adrenergic α2B radioligand binding ([3H]Rauwolscine)
T1 construct: expressed in transfected cells; host or cells: Chinese hamster ovary (CHO-K1) cells
T1 sequence (P18089 1-450): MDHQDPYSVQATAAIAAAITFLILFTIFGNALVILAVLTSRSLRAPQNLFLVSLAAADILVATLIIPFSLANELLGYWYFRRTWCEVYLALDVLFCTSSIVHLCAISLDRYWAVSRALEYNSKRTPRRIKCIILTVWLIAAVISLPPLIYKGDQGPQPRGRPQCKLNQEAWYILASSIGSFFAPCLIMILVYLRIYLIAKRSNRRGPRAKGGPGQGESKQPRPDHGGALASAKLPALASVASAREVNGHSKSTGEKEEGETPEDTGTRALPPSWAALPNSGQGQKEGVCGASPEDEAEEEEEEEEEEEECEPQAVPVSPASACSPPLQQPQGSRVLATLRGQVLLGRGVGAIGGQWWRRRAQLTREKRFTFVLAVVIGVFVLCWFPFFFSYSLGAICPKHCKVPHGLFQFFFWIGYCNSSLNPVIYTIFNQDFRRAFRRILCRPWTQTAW
Method in brief: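 Membranes from CHO-K1 cells expressing the receptor were incubated with 2.5 nM [3H]Rauwolscine for 60 min at 25 °C in Tris-HCl buffer pH 7.4 with MgCl2, EDTA and BSA. Non-specific binding was defined with 10 μM prazosin. Compounds were tested at ≤1 μM in 1% DMSO and read out as % inhibition of specific binding after filtration.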

[2] = molecular target: T2, human recombinant serotonin (5-Hydroxytryptamine) 5-HT6 receptor (Homo sapiens, UniProt P50406); assay: Serotonin 5-HT6 radioligand binding ([3H]LSD); conditions: read-out: Inhibition of ligand binding, Serotonin 5-HT6 (percent inhibition of specific binding); for inhibition at 0.1 µM: compound at 0.1 μM; for inhibition at 1 µM: compound at 1 μM
T2 construct: expressed in transfected cells; host or cells: human HeLa cells
Experimental: Compounds of the invention were incubated with 1.5 nM [3H]Lysergic acid diethylamide (LSD) for 120 min. at 37° C. […] Receptor proteins were filtered and washed, the filters were then counted to determine [3H]LSD specifically bound. Compounds were screened at 1 μM or lower, using 1% DMSO as vehicle. Biochemical assay results are presented as the percent inhibition of specific binding in Table 10.

[3] = molecular target: T3, human recombinant adrenergic α2A receptor (Homo sapiens, UniProt P08913); assay: Adrenergic α2A radioligand binding ([3H]MK-912)
T3 construct: expressed in transfected cells; host or cells: insect Sf9 cells
T3 sequence (P08913 1-465): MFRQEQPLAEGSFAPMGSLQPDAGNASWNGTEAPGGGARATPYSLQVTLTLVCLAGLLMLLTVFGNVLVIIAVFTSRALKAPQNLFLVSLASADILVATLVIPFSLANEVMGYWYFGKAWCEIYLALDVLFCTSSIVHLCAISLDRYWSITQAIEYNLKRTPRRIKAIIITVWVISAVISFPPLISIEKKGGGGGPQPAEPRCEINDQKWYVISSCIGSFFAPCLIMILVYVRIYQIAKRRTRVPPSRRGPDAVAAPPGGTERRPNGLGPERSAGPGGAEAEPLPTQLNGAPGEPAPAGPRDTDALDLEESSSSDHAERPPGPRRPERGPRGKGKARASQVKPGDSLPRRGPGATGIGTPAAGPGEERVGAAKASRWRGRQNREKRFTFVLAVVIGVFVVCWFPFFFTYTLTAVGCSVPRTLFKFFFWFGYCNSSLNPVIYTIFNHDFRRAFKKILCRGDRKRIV
Method in brief: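 Sf9-expressed human receptor in 50 mM Tris-HCl pH 7.4, 12.5 mM MgCl2, 2 mM EDTA; compounds at 1 μM or lower (1% DMSO) incubated with 1 nM [3H]MK-912 for 60 min at 25° C. Non-specific binding defined with 10 μM WB-4101; filtered bound radioactivity counted, reported as percent inhibition of specific binding.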

[4] = test system: rat central imidazoline I2 receptor; assay: Central imidazoline I2 radioligand binding ([3H]Idazoxan)
Experimental: To evaluate in radioligand binding assays the activity of compounds of the invention, rat central imidazoline I2 receptor obtained from Wistar Rat cerebral cortex (Brown, C. M. et al., Br. J. Pharmacol. 99:803, 1990) in a modified Tris-HCl buffer (50 mM Tris-HCl buffer, pH 7.4, 0.5 mM EDTA) was used. Compounds of the invention were incubated with 2 nM [^3H]Idazoxan for 30 min. at 25° C. Non-specific binding was estimated in the presence of 1 μM Idazoxan. Receptor proteins were filtered and washed, the filters were then counted to determine [^3H]Idazoxan specifically bound. Compounds were screened at 1 μM or lower, using 1% DMSO as vehicle. Compounds of the invention were tested in this biochemical assay and percent inhibition of specific binding was determined.

[5] = molecular target: T4, human recombinant histamine H2 receptor (Homo sapiens, UniProt P25021); assay: Histamine H2 radioligand binding ([125I]Aminopotentidine)
T4 construct: expressed in transfected cells; host or cells: Chinese hamster ovary (CHO) K1 cells
Method in brief: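 Receptor source: human recombinant H2 in CHO-K1 cells, assayed in 50 mM phosphate pH 7.4. Competition against 0.1 nM [125I]aminopotentidine, 120 min, 25 °C; 3 μM tiotidine sets nonspecific binding, filter-bound counts give specific binding.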

[6] = percent inhibition of specific binding, compound at 1 μM, read-out: Inhibition of ligand binding, Adrenergic α2B
[7] = percent inhibition of specific binding, compound at 1 μM, read-out: Inhibition of ligand binding, Adrenergic α2A
[8] = read-out: Histamine Binding (1 μM) H2, percent inhibition of specific binding, 1 μM
[9] = compound at 1 μM, […] [3H]Rauwolscine, read-out: Inhibition of ligand binding, Adrenergic α2B (percent inhibition of specific binding)
[10] = compound at 1 μM, read-out: Inhibition of ligand binding, Adrenergic α2A (percent inhibition of specific binding)

T4 sequence (P25021 whole entry): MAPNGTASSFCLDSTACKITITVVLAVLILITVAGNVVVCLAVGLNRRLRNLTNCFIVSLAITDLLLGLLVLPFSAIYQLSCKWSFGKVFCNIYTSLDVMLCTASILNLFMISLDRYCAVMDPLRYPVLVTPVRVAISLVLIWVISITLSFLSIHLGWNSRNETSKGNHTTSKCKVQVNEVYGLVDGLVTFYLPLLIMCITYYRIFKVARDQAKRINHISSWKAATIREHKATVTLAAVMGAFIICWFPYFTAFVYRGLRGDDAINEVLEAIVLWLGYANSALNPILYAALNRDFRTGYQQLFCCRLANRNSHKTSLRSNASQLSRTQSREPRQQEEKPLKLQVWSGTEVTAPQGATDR
T2 sequence (P50406 whole entry): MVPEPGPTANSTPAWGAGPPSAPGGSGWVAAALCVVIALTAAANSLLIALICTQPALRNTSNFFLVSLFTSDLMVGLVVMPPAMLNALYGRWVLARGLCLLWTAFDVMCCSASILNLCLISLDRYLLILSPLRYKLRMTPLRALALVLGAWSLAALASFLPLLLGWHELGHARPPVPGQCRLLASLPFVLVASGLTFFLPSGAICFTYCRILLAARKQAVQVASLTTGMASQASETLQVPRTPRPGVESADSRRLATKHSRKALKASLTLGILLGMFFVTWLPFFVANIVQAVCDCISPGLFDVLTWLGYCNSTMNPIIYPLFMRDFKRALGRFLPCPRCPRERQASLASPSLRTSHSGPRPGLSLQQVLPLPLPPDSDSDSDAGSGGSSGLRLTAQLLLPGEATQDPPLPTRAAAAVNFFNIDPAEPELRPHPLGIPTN

Compound | Inhibition of ligand binding, Adrenergic α2B ([1]; percent inhibition of specific binding, compound at 1 μM, 1 µM) [%] | inhibition at 1 µM [1, 6] [%] | inhibition at 0.1 µM [2] [%] | inhibition at 1 µM [2] [%] | inhibition at 1 µM [3, 7] [%] | Imidazoline I2 Central (1 μM), percent inhibition of specific binding ([4]; 1 µM) | inhibition at 1 µM [5, 8] [%] | Imidazoline I2 Central (1 μM), percent inhibition of specific binding [4] [%] | inhibition at 1 µM ([1]; read-out: Inhibition of ligand binding, Adrenergic α2B) [%] | inhibition at 1 µM ([5]; read-out: Histamine Binding (1 μM) H2, percent inhibition of specific binding) [%] | inhibition at 1 µM ([3]; read-out: Inhibition of ligand binding, Adrenergic α2A) [%] | inhibition at 1 µM [1, 9] [%] | inhibition at 1 µM [3, 10] [%]
Cc1ccc(C(O)Cn2c3c(c4cc(C)ccc42)CN(C)CC3)cc1 (racemic) [Compound 43, racemic-2-(1,2,3,4-tetrahydro-2,8-dimethylpyrido[4,3-b]indol-5-yl)-1-p-tolylethanol] | 102 | 108 | 62 | 95 | 98 | 76% and 79% |  |  |  |  |  |  | 
CCN1CCc2c(c3ccccc3n2CC(O)c2ccc(C)cc2)C1 (racemic) [Compound 44, racemic-2-(2-ethyl-1,2,3,4-tetrahydropyrido[4,3-b]indol-5-yl)-1-p-tolylethanol] |  | 94 |  | 9 | 65 |  | 26 | 46 |  |  |  |  | 
CCN1CCc2c(c3cc(C)ccc3n2CC(O)c2ccc(C)cc2)C1 (racemic) [Compound 51, racemic-2-(2-ethyl-1,2,3,4-tetrahydro-8-methylpyrido[4,3-b]indol-5-yl)-1-p-tolylethanol] |  | 118 | 29 | 83 | 91 |  | 59 | 79 |  |  |  |  | 
Cc1ccc(C(O)Cn2c3c(c4ccccc42)CN(C)CC3)cc1 (racemic) [Compound 53, racemic-2-(1,2,3,4-tetrahydro-2-methylpyrido[4,3-b]indol-5-yl)-1-p-tolylethanol] |  | 114 |  | 49 | 93 |  | 58 | 78 |  |  |  |  | 
Cc1ccc2[nH]c3c(c2c1)CN(C)CC3 [Compound 3, 2,8-Dimethyl-2,3,4,5-tetrahydro-1H-pyrido[4,3-b]indole] |  |  |  | 58 |  |  |  | 58 | 91 | 6 | 58 |  | 
C/C(=C\n1c2c(c3cc(Cl)ccc31)CN(C)CC2)c1ccc(F)cc1 [Compound 83, (E)-8-chloro-5-(2-(4-fluorophenyl)prop-1-enyl)-2,3,4,5-tetrahydro-2-methyl-1H-pyrido[4,3-b]indole] |  | 121 | 96 | 102 | 98 |  | 99 | 85 |  |  |  |  | 
COc1ccc(C#Cn2c3c(c4cc(Cl)ccc42)CN(C)CC3)cc1F [Compound No. 477, 8-chloro-5-((3-fluoro-4-methoxyphenyl)ethynyl)-2-methyl-2,3,4,5-tetrahydro-1H-pyrido[4,3-b]indole] |  |  |  | 89 |  |  | 97 |  |  |  |  | 107 | 97
Cc1ccc2c(c1)c1c(n2C#Cc2ccc(F)cc2)CCN(C)C1 [Compound No. 478, 5-((4-fluorophenyl)ethynyl)-2,8-dimethyl-2,3,4,5-tetrahydro-1H-pyrido[4,3-b]indole] |  |  |  | 97 |  |  | 94 |  |  |  |  | 106 | 96
COC(=O)c1ccc2c(c1)c1c(n2C#Cc2ccc(F)cc2)CCN(C)C1 [Compound No. 479, methyl 5-((4-fluorophenyl)ethynyl)-2-methyl-2,3,4,5-tetrahydro-1H-pyrido[4,3-b]indole-8-carboxylate] |  |  |  | 91 |  |  | 51 |  |  |  |  | 37 | 83
CN1CCc2c(c3cc(Cl)ccc3n2C#Cc2ccc(Cl)cc2)C1 [Compound No. 480, 8-chloro-5-((4-chlorophenyl)ethynyl)-2-methyl-2,3,4,5-tetrahydro-1H-pyrido[4,3-b]indole] |  |  |  | 67 |  |  | 93 |  |  |  |  | 100 | 94
Cc1ccc2c(c1)c1c(n2C#Cc2ccc(Cl)cc2)CCN(C)C1 [Compound No. 481, 5-((4-chlorophenyl)ethynyl)-2,8-dimethyl-2,3,4,5-tetrahydro-1H-pyrido[4,3-b]indole] |  |  |  | 87 |  |  | 97 |  |  |  |  | 98 | 99
CN1CCc2c(c3cc(C(=O)O)ccc3n2C#Cc2ccc(F)cc2)C1 [Compound No. 482, 5-((4-fluorophenyl)ethynyl)-2-methyl-2,3,4,5-tetrahydro-1H-pyrido[4,3-b]indole-8-carboxylic acid] |  |  |  | 4 |  |  | -3 |  |  |  |  | 6 | 8
CNC(=O)c1ccc2c(c1)c1c(n2C#Cc2ccc(F)cc2)CCN(C)C1 [Compound No. 483, 5-((4-fluorophenyl)ethynyl)-N,2-dimethyl-2,3,4,5-tetrahydro-1H-pyrido[4,3-b]indole-8-carboxamide] |  |  |  | 53 |  |  | 10 |  |  |  |  | 14 | 77
Cc1ccc2c(c1)c1c(n2CC#Cc2ccccn2)CCN(C)C1 [Compound No. 500, 2,3,4,5-tetrahydro-2,8-dimethyl-5-(3-(pyridin-2-yl)prop-2-ynyl)-1H-pyrido[4,3-b]indole] |  |  |  | 18 |  |  | 30 | 54 |  |  |  | 23 | 72
Cc1ccc2c(c1)c1c(n2/C=C/c2ccc(C)nc2)CCN(C)C1 [compound 95, 2,3,4,5-tetrahydro-2,8-dimethyl-5-((E)-2-(6-methylpyridin-3-yl)vinyl)-1H-pyrido[4,3-b]indole] |  | 103 |  | 71 | 95 |  | 41 |  |  |  |  |  | 
C/C(=C\n1c2c(c3cc(Cl)ccc31)CN(C)CC2)c1ccccc1 [compound 106, (E)-8-chloro-2,3,4,5-tetrahydro-2-methyl-5-(2-phenylprop-1-enyl)-1H-pyrido[4,3-b]indole] |  | 114 |  | 104 | 93 |  | 99 |  |  |  |  |  | 
